Reference: ChEMBL document CHEMBL1201862, “PubChem BioAssay data set” (2004)
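Each compound was tested at five concentrations against cells in 96-well plates for 48 hours. GI50: concentration for 50% inhibition of growth.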 Calls of active or inactive are those of the source. Cut-off read from the data, not from the text of the source: active = GI50 up to about 1.1 µM and inactive = higher.

Assays:
Experiment in all cases: NCI-60 cell line screen, 48 h
[1] = test system: CAKI-1
[2] = test system: SK-MEL-2
[3] = test system: SF-539
[4] = test system: UACC-62
[5] = test system: LXFL 529
[6] = test system: HCT-116
[7] = test system: RPMI-8226
[8] = test system: EKVX
[9] = test system: SNB-78
[10] = test system: NCI-H23
[11] = test system: CCRF-CEM
[12] = test system: Malme-3M
[13] = test system: MOLT-4
[14] = test system: UO-31
[15] = test system: IGROV-1
[16] = test system: DLD-1
[17] = test system: RXF 393
[18] = test system: SNB-75
[19] = test system: HL-60
[20] = test system: M14
[21] = test system: HOP-92
[22] = test system: SNB-19
[23] = test system: TK-10
[24] = test system: HT-29
[25] = test system: U-251
[26] = test system: HCT-15
[27] = test system: XF498
[28] = test system: SF-268
[29] = test system: OVCAR-8
[30] = test system: UACC-257
[31] = test system: NCI-H460
[32] = test system: SR
[33] = test system: A549
[34] = test system: 786-0
[35] = test system: A498
[36] = test system: M19-MEL
[37] = test system: OVCAR-5
[38] = test system: KM-20L2
[39] = test system: SF-295
[40] = test system: RXF 631
[41] = test system: DMS-114
[42] = test system: SW-620
[43] = test system: OVCAR-3
[44] = test system: K562
[45] = test system: HCC 2998
[46] = test system: OVCAR-4
[47] = test system: DMS-273
[48] = test system: NCI-H226
[49] = test system: LOX IMVI
[50] = test system: ACHN
[51] = test system: SK-MEL-28
[52] = test system: SN12C
[53] = test system: SK-MEL-5
[54] = test system: HOP-18
[55] = test system: SK-OV-3
[56] = test system: HOP-62
[57] = test system: NCI-H522
[58] = test system: KM12
[59] = test system: COLO 205

CCCNC1=C(C(=O)OCC)C(=O)CO1
GI50 [1]: > 100 µM (inactive)
GI50 [2]: > 100 µM (inactive)
GI50 [3]: > 100 µM (inactive)
GI50 [4]: > 100 µM (inactive)
GI50 [5]: > 100 µM (inactive)
GI50 [6]: > 100 µM (inactive)
GI50 [7]: > 100 µM (inactive)
GI50 [8]: > 100 µM (inactive)
GI50 [9]: > 100 µM (inactive)
GI50 [10]: > 100 µM (inactive)
GI50 [11]: > 100 µM (inactive)
GI50 [12]: > 100 µM (inactive)
GI50 [13]: > 100 µM (inactive)
GI50 [14]: > 100 µM (inactive)
GI50 [15]: > 100 µM (inactive)
GI50 [16]: > 100 µM (inactive)
GI50 [17]: > 100 µM (inactive)
GI50 [18]: > 100 µM (inactive)
GI50 [19]: > 100 µM (inactive)
GI50 [20]: > 100 µM (inactive)
GI50 [21]: > 100 µM (inactive)
GI50 [22]: > 100 µM (inactive)
GI50 [23]: > 100 µM (inactive)
GI50 [24]: > 100 µM (inactive)
GI50 [25]: > 100 µM (inactive)
GI50 [26]: > 100 µM
GI50 [27]: > 100 µM (inactive)
GI50 [28]: > 100 µM (inactive)
GI50 [29]: > 100 µM (inactive)
GI50 [30]: > 100 µM (inactive)
GI50 [31]: > 100 µM (inactive)
GI50 [32]: > 100 µM (inactive)
GI50 [33]: > 100 µM (inactive)
GI50 [34]: > 100 µM (inactive)
GI50 [35]: > 100 µM (inactive)
GI50 [36]: > 100 µM (inactive)
GI50 [37]: > 100 µM (inactive)
GI50 [38]: > 100 µM (inactive)
GI50 [39]: > 100 µM (inactive)
GI50 [40]: > 100 µM (inactive)
GI50 [41]: > 100 µM (inactive)
GI50 [42]: > 100 µM (inactive)
GI50 [43]: > 100 µM (inactive)
GI50 [44]: > 100 µM (inactive)
GI50 [45]: > 100 µM (inactive)
GI50 [46]: > 100 µM (inactive)
GI50 [47]: > 100 µM (inactive)
GI50 [48]: > 100 µM (inactive)
GI50 [49]: > 100 µM (inactive)
GI50 [50]: > 100 µM (inactive)
GI50 [51]: > 100 µM (inactive)
GI50 [52]: > 100 µM (inactive)
GI50 [53]: > 100 µM (inactive)

O=C1[C@H]2ON(c3ccccc3)C(c3ccc([N+](=O)[O-])cc3)[C@H]2C(=O)N1c1ccc(Cc2ccc(N3C(=O)[C@@H]4ON(c5ccccc5)C(c5ccc([N+](=O)[O-])cc5)[C@@H]4C3=O)cc2)cc1 (stereo partly specified)
GI50 [1]: 26.1 µM (inactive)
GI50 [2]: > 100 µM (inactive)
GI50 [3]: > 100 µM (inactive)
GI50 [4]: 67.3 µM (inactive)
GI50 [54]: > 100 µM (inactive)
GI50 [5]: 74.6 µM (inactive)
GI50 [6]: > 100 µM (inactive)
GI50 [7]: > 100 µM (inactive)
GI50 [55]: > 100 µM (inactive)
GI50 [8]: > 100 µM (inactive)
GI50 [9]: > 100 µM (inactive)
GI50 [56]: > 100 µM (inactive)
GI50 [10]: > 100 µM (inactive)
GI50 [11]: > 100 µM (inactive)
GI50 [12]: 58.6 µM (inactive)
GI50 [13]: > 100 µM (inactive)
GI50 [14]: > 100 µM (inactive)
GI50 [15]: > 100 µM (inactive)
GI50 [16]: > 100 µM (inactive)
GI50 [17]: > 100 µM (inactive)
GI50 [18]: > 100 µM (inactive)
GI50 [19]: > 100 µM (inactive)
GI50 [20]: 13.5 µM (inactive)
GI50 [21]: 52.4 µM (inactive)
GI50 [22]: > 100 µM (inactive)
GI50 [23]: > 100 µM (inactive)
GI50 [24]: > 100 µM (inactive)
GI50 [25]: > 100 µM (inactive)
GI50 [26]: > 100 µM
GI50 [28]: > 100 µM (inactive)
GI50 [29]: > 100 µM (inactive)
GI50 [30]: 98.9 µM (inactive)
GI50 [57]: > 100 µM (inactive)
GI50 [31]: > 100 µM (inactive)
GI50 [33]: > 100 µM (inactive)
GI50 [34]: > 100 µM (inactive)
GI50 [35]: > 100 µM (inactive)
GI50 [36]: > 100 µM (inactive)
GI50 [37]: > 100 µM (inactive)
GI50 [58]: > 100 µM (inactive)
GI50 [38]: > 100 µM (inactive)
GI50 [39]: > 100 µM (inactive)
GI50 [40]: > 100 µM (inactive)
GI50 [41]: > 100 µM (inactive)
GI50 [42]: > 100 µM (inactive)
GI50 [59]: 58.7 µM (inactive)
GI50 [43]: > 100 µM (inactive)
GI50 [44]: > 100 µM (inactive)
GI50 [45]: > 100 µM (inactive)
GI50 [46]: > 100 µM (inactive)
GI50 [47]: > 100 µM (inactive)
GI50 [48]: > 100 µM (inactive)
GI50 [49]: > 100 µM (inactive)
GI50 [50]: > 100 µM (inactive)
GI50 [51]: > 100 µM (inactive)
GI50 [52]: > 100 µM (inactive)
GI50 [53]: 40.1 µM (inactive)

O=C(Nc1cccs1)c1c(O)[nH]c(=S)[nH]c1=O
GI50 [1]: > 100 µM (inactive)
GI50 [2]: > 100 µM (inactive)
GI50 [3]: > 100 µM (inactive)
GI50 [4]: > 100 µM (inactive)
GI50 [54]: > 100 µM (inactive)
GI50 [7]: > 100 µM (inactive)
GI50 [55]: > 100 µM (inactive)
GI50 [56]: > 100 µM (inactive)
GI50 [10]: > 100 µM (inactive)
GI50 [11]: > 100 µM (inactive)
GI50 [13]: > 100 µM (inactive)
GI50 [14]: > 100 µM (inactive)
GI50 [15]: > 100 µM (inactive)
GI50 [16]: > 100 µM (inactive)
GI50 [20]: > 100 µM (inactive)
GI50 [21]: > 100 µM (inactive)
GI50 [22]: > 100 µM (inactive)
GI50 [23]: > 100 µM (inactive)
GI50 [25]: > 100 µM (inactive)
GI50 [26]: > 100 µM
GI50 [28]: > 100 µM (inactive)
GI50 [29]: > 100 µM (inactive)
GI50 [30]: > 100 µM (inactive)
GI50 [57]: > 100 µM (inactive)
GI50 [31]: > 100 µM (inactive)
GI50 [32]: > 100 µM (inactive)
GI50 [33]: > 100 µM (inactive)
GI50 [34]: > 100 µM (inactive)
GI50 [35]: > 100 µM (inactive)
GI50 [37]: > 100 µM (inactive)
GI50 [58]: > 100 µM (inactive)
GI50 [38]: > 100 µM (inactive)
GI50 [39]: > 100 µM (inactive)
GI50 [40]: > 100 µM (inactive)
GI50 [41]: > 100 µM (inactive)
GI50 [42]: > 100 µM (inactive)
GI50 [59]: > 100 µM (inactive)
GI50 [43]: > 100 µM (inactive)
GI50 [44]: > 100 µM (inactive)
GI50 [46]: > 100 µM (inactive)
GI50 [48]: > 100 µM (inactive)
GI50 [49]: > 100 µM (inactive)
GI50 [50]: > 100 µM (inactive)
GI50 [51]: > 100 µM (inactive)
GI50 [52]: > 100 µM (inactive)
GI50 [53]: > 100 µM (inactive)
